{"source": "paper PMC5917010", "about": "“Structural basis for GPR40 allosteric agonism and incretin stimulation” (Nature Communications, 2018)", "key": {"wild type ICR mice": {"tested_on": "wild type ICR mice", "experiment": "Intraperitoneal glucose tolerance test (IPGTT) in wild type ICR mice", "format": "in vivo, mouse", "conditions": "various oral doses", "experimental": "Nine to ten week old male ICR mice (Envigo) and GPR40 KO mice (Taconic) were used. The day before an IPGTT (~1600), animals were fasted in clean cages. The following morning (~0800), animals were randomized on fasting glucose and body weight (N = 6 per group). Mice were orally administered a test article or vehicle 60 min prior to an intraperitoneal (IP) injection of glucose (2g/kg). Blood glucose levels were determined by a glucometer from tail bleeds taken at 0, 15, 30, 60, and 120 min after the glucose challenge. An average of two readings were reported at each time point. Also, blood samples were collected into serum tubes at 0, 3, 6, and 15 min post glucose injection for insulin measurement. Serum tubes were centrifuged at 3000g for 5 min and serum transferred into 96-well plates for insulin analysis by a Mesoscale rat/mouse insulin assay."}, "GPR40 KO mice": {"tested_on": "GPR40 KO mice", "experiment": "OGTT in GPR40 KO mice", "format": "in vivo, mouse", "conditions": "high dose of compound 1", "experimental": "Eight to thirteen week old male C57BL/6 or KO mice were used. The day before the study, at 1600 hours, animals were transferred into clean cages and food was removed. The following morning (~0800 hours), mice were randomized by block randomization to treatment groups (N = 5–7 per group) so each group had similar mean and standard deviation of body weight and blood glucose. […] Animals were dosed with vehicle (0.5% MC/0.25% Tween-80) or the test article by oral gavage. Group allocations were not blinded from the experimenters who collected the data. After 60 min compound treatment animals were then given an oral gavage of glucose (2 g/kg). At 0, 15, 30, 60, and 120 min post oral glucose, two glucose readings via glucometers were obtained. The average of two glucose readings was reported at each time point. Data were expressed as mean±standard error (s.e.m.). Blood glucose values were analyzed using ANOVA with repeated measures. Cook’s distance was also calculated from linear regression. All animals were included in the analysis with their individual averaged Cook’s distance < 1. Dunnett’s comparison was performed at each time point by R program. Significance is denoted at p < 0.05."}, "human GPR40 [1]": {"target": "T1, human GPR40 (Homo sapiens, UniProt O14842)", "T1 construct": "HEK293 cells stably overexpressing full length human GPR40; expressed in transfected cells", "experiment": "Human GPR40 b-arrestin", "format": "cell-based"}, "human GPR40 [2]": {"target": "T1, human GPR40", "experiment": "Human GPR40 IP1", "format": "cell-based"}, "hRXRalpha": {"target": "hRXRalpha (Homo sapiens, UniProt P19793)", "sequence (P19793 whole entry)": "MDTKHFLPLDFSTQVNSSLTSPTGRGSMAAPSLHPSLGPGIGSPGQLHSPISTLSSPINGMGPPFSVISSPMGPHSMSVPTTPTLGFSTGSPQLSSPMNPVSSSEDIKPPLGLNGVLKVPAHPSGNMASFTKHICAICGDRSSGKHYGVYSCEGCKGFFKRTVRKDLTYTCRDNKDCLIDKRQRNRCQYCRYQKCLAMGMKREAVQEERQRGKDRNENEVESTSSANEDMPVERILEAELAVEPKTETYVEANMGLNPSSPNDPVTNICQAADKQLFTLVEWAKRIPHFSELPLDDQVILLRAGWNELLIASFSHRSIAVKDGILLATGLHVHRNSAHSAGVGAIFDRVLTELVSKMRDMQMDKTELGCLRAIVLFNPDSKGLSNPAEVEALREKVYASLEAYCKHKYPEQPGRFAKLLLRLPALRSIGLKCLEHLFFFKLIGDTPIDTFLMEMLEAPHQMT", "experiment": "hRXRalpha binding"}, "hRORalpha": {"target": "hRORalpha (Homo sapiens, UniProt P35398)", "experiment": "hRORalpha binding"}, "hERalpha": {"target": "hERalpha (Homo sapiens, UniProt P03372)", "experiment": "hERalpha binding"}, "hGLUCR": {"target": "hGLUCR (Homo sapiens, UniProt P47871)", "sequence (P47871 26-477)": "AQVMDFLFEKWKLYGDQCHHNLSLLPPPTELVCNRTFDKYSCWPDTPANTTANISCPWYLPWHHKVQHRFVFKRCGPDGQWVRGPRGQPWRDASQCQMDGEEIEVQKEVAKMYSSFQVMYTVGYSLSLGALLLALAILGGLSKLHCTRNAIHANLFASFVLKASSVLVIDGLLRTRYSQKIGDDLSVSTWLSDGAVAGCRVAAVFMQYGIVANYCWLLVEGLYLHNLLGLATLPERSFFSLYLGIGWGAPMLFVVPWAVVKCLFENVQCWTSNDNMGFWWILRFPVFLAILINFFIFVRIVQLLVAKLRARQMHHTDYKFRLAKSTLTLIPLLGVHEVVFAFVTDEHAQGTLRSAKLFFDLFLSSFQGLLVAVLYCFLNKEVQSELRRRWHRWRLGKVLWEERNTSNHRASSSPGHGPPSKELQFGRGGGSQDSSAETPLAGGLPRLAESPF", "experiment": "hGLUCR binding"}, "hM1": {"target": "hM1 (Homo sapiens, UniProt P11229)", "sequence (P11229 whole entry)": "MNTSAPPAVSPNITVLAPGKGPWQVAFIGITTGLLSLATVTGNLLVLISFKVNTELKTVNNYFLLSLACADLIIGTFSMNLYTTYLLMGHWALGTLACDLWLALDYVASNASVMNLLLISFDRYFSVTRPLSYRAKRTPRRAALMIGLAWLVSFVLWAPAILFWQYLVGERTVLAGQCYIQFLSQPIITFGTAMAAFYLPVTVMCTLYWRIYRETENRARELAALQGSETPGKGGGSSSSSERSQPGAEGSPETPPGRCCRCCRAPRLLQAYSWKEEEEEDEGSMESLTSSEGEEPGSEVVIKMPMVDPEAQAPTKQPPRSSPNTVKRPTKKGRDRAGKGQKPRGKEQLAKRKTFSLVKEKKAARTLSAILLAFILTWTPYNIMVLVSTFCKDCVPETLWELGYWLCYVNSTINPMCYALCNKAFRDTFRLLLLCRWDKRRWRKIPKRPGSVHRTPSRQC", "experiment": "hM1 binding", "conditions": "read-out: hM1 binding Rel IC50"}, "hD1": {"target": "hD1 (Homo sapiens, UniProt P21728)", "sequence (P21728 whole entry)": "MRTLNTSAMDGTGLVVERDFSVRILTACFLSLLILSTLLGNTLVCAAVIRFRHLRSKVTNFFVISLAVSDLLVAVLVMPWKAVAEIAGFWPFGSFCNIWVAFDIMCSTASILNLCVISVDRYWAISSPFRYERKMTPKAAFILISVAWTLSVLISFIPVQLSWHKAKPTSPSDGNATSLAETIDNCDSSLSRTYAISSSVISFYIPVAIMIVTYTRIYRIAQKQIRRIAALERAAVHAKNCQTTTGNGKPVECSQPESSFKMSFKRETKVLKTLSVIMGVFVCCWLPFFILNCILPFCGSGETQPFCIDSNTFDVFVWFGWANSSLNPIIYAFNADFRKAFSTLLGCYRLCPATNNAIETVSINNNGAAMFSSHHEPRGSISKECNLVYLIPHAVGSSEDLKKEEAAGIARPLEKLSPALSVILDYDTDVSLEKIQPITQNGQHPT", "experiment": "hD1 cAMP", "format": "cell-based", "conditions": "read-out: hD1 cAMP Rel EC50"}, "hNav1.7": {"target": "hNav1.7 (Homo sapiens, UniProt Q15858)", "sequence (Q15858 whole entry)": "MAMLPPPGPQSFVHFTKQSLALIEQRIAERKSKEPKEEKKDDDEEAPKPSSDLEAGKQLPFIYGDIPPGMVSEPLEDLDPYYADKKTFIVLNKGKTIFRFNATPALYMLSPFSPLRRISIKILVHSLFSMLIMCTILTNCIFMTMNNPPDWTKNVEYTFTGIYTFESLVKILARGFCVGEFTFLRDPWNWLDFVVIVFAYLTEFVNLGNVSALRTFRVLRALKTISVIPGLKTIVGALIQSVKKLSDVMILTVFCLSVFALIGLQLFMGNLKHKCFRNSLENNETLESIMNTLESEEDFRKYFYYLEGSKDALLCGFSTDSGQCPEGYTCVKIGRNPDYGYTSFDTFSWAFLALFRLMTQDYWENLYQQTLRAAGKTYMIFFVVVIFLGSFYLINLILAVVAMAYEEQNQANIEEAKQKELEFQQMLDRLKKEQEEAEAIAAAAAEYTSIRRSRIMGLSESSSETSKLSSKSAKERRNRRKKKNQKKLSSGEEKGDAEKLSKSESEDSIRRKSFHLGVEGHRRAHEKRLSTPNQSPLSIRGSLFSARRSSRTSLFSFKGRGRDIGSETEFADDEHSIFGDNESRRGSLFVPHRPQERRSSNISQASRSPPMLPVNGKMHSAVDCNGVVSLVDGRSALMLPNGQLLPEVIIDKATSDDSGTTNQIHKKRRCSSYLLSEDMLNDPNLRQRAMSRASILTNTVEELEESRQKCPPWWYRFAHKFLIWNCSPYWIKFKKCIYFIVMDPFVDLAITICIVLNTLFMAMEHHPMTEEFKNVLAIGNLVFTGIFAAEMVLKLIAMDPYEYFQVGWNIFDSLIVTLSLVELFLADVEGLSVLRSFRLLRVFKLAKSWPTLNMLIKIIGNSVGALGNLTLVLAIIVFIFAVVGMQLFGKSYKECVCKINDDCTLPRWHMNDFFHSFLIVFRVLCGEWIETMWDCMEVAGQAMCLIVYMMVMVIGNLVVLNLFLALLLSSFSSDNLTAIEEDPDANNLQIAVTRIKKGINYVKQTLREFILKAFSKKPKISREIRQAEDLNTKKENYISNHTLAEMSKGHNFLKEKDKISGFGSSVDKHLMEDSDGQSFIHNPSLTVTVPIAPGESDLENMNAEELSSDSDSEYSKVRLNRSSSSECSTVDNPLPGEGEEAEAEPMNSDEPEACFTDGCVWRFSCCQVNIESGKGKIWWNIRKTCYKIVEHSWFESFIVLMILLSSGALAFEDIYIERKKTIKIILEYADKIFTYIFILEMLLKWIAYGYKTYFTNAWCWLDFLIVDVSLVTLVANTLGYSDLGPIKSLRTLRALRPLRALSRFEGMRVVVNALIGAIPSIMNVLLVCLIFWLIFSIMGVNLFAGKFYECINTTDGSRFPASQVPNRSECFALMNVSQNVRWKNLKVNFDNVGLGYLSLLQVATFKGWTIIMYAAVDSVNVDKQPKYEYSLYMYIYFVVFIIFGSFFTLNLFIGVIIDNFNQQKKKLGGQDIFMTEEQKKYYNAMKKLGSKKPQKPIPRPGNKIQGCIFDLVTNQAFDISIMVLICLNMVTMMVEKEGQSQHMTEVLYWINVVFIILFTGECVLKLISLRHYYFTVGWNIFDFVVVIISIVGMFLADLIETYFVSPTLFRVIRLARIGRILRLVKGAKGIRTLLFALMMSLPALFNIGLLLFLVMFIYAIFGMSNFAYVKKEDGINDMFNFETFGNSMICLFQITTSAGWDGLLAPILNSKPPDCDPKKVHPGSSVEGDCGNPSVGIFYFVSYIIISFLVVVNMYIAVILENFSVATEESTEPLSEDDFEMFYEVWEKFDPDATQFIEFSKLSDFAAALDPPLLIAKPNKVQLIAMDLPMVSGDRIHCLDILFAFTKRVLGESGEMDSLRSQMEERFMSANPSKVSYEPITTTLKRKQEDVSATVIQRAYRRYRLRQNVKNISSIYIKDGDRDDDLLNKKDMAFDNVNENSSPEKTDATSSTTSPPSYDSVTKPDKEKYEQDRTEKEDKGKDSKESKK", "experiment": "hNav1.7 binding", "conditions": "read-out: hNav1.7 binding Rel IC50"}, "hCDK1": {"target": "hCDK1 (Homo sapiens, UniProt P06493)", "sequence (P06493 whole entry)": "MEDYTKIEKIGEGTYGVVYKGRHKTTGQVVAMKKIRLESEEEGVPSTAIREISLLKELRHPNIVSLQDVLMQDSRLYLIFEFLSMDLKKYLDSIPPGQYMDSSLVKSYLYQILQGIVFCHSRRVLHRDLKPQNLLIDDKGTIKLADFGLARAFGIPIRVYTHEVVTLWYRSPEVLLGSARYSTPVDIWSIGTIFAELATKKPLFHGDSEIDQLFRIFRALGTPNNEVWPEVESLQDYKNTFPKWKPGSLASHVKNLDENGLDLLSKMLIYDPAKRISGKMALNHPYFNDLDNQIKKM", "sequence (P14635 whole entry partner)": "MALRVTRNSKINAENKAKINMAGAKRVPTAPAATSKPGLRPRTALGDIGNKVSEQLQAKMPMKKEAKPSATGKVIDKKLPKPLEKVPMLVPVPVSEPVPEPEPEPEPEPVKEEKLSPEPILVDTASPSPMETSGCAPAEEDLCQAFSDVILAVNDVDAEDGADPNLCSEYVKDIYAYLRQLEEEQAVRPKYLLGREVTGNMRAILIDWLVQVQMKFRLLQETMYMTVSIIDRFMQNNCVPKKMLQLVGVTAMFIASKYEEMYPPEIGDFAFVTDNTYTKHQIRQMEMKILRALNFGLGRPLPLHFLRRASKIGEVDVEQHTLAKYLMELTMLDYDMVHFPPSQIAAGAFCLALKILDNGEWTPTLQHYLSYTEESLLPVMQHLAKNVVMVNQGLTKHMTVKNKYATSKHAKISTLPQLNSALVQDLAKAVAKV", "experiment": "hCDK1 binding"}, "Dog hepatocyte clearance": {"experiment": "Dog hepatocyte clearance", "format": "in vitro ADME", "conditions": "hepatocytes"}, "Rat hepatocyte clearance": {"experiment": "Rat hepatocyte clearance", "format": "in vitro ADME", "conditions": "hepatocytes"}, "[3]": {"experiment": "Drug exposure in plasma after oral dose in wild type C57BL/6 mice", "format": "in vivo, mouse", "conditions": "0.03-10 mpk, Supplementary Fig. 9"}, "PPAR": {"tested_on": "PPAR", "experiment": "PPAR binding and functional assays at multiple concentrations", "conditions": "all PPAR binding and functional assays"}, "[4]": {"tested_on": "GPCRs (including GPR120), NHRs and Kinases", "experiment": "Selectivity panels against GPCRs, NHRs and Kinases"}, "GPR40 Y44F": {"target": "GPR40 Y44F (Homo sapiens, UniProt O14842, Y44F)", "sequence (O14842 whole entry Y44F)": "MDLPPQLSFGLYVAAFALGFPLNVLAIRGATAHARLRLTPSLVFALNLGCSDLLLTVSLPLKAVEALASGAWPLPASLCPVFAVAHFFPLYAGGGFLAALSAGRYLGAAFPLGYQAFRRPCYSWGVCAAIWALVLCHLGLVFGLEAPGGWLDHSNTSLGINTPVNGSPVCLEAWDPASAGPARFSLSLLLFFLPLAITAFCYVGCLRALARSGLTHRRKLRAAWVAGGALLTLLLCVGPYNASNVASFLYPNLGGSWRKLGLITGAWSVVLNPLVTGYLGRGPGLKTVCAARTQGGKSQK", "experiment": "cAMP accumulation assay, Y44F mutant", "method": "(§1) HEK293 cells transiently transfected with Promega’s cAMP response element (CRE/luc2P) and a GPR40 construct were plated (40K cells/well) into 96-well microtiter plates using Dulbecco’s Modified Eagle’s Medium (DMEM) supplemented with 10% FBS, 20 mM HEPES, pH 7.4, 100 U/mL Penicillin, 100 µg/mL Streptomycin, and 800 µg/mL Geneticin. Test compounds were serially diluted three-fold in 100% DMSO and immediately diluted in media. […] EC50 values were calculated using a four-parameter logistic curve fitting equation."}, "GPR40 Y114F": {"target": "GPR40 Y114F (Homo sapiens, UniProt O14842, Y114F)", "sequence (O14842 whole entry Y114F)": "as the sequence (O14842 whole entry Y44F) above, with F44Y, Y114F counted along it", "experiment": "cAMP accumulation assay, Y114F mutant", "method": "as §1"}, "GPR40 L112A": {"target": "GPR40 L112A (Homo sapiens, UniProt O14842, L112A)", "sequence (O14842 whole entry L112A)": "as the sequence (O14842 whole entry Y44F) above, with F44Y, L112A counted along it", "experiment": "cAMP accumulation assay, L112A mutant", "method": "as §1"}, "GPR40 L112F": {"target": "GPR40 L112F (Homo sapiens, UniProt O14842, L112F)", "sequence (O14842 whole entry L112F)": "as the sequence (O14842 whole entry Y44F) above, with F44Y, L112F counted along it", "experiment": "cAMP accumulation assay, L112F mutant", "method": "as §1"}, "WT GPR40": {"target": "WT GPR40 (Homo sapiens, UniProt O14842)", "sequence (O14842 whole entry)": "as the sequence (O14842 whole entry Y44F) above, with F44Y counted along it", "experiment": "cAMP accumulation assay (CRE/luc2P), wild type GPR40", "method": "as §1"}}}
{"smiles": "COc1ccc(C(=O)N(CC(C)(C)C)c2cccc(C)n2)c(N2CCC(c3cc4ccc([C@@H](CC(=O)O)C5CC5)cc4o3)CC2)c1", "note": "[compound 1]", "values": [{"measurement": "glucose excursion in IPGTT", "setting": "wild type ICR mice", "value": "decreases in glucose excursion"}, {"measurement": "insulin secretion in IPGTT", "setting": "wild type ICR mice", "value": "Dose-dependent increases in insulin secretion"}, {"measurement": "blood glucose in OGTT, GPR40 KO", "setting": "GPR40 KO mice", "value": "No change in blood glucose"}, {"measurement": "EC50", "setting": "human GPR40 [1]", "value": 0.0019, "unit": "µM"}, {"measurement": "Emax", "setting": "human GPR40 [1]", "value": 172, "unit": "%"}, {"measurement": "EC50", "setting": "human GPR40 [2]", "value": "< 0.05", "unit": "nM"}, {"measurement": "Emax", "setting": "human GPR40 [2]", "value": 484, "unit": "%"}, {"measurement": "Ki", "setting": "hRXRalpha", "value": "> 10", "unit": "µM"}, {"measurement": "Ki", "setting": "hRORalpha", "value": "> 20", "unit": "µM"}, {"measurement": "Ki", "setting": "hERalpha", "value": "> 11", "unit": "µM"}, {"measurement": "Ki", "setting": "hGLUCR", "value": "> 10", "unit": "µM"}, {"measurement": "IC50", "setting": "hM1", "value": "> 10", "unit": "µM"}, {"measurement": "EC50", "setting": "hD1", "value": "> 80", "unit": "µM"}, {"measurement": "IC50", "setting": "hNav1.7", "value": "> 30", "unit": "µM"}, {"measurement": "IC50", "setting": "hCDK1", "value": "> 20", "unit": "µM"}, {"measurement": "recovery", "setting": "Dog hepatocyte clearance; no ABT, read-out: Dog Hepatocyte Clearance no ABT % Recovery", "value": 103, "unit": "%"}, {"measurement": "hepatocyte CLint", "setting": "Dog hepatocyte clearance; no ABT, read-out: Dog Hepatocyte Clearance no ABT Intrinsic Clearance", "value": 31.4, "unit": "µL/min/1e6 cells"}, {"measurement": "recovery", "setting": "Dog hepatocyte clearance; with ABT (concentration not stated), read-out: Dog Hepatocyte Clearance ABT % Recovery", "value": 92.8, "unit": "%"}, {"measurement": "hepatocyte CLint", "setting": "Dog hepatocyte clearance; with ABT, read-out: Dog Hepatocyte Clearance ABT Intrinsic Clearance", "value": 19.3, "unit": "µL/min/1e6 cells"}, {"measurement": "recovery", "setting": "Rat hepatocyte clearance; no ABT, read-out: Rat Hepatocyte Clearance no ABT % Recovery", "value": 103, "unit": "%"}, {"measurement": "hepatocyte CLint", "setting": "Rat hepatocyte clearance; no ABT, read-out: Rat Hepatocyte Clearance no ABT Intrinsic Clearance", "value": 12.2, "unit": "µL/min/1e6 cells"}, {"measurement": "recovery", "setting": "Rat hepatocyte clearance; with ABT (concentration not stated), read-out: Rat Hepatocyte Clearance ABT % Recovery", "value": 92.8, "unit": "%"}, {"measurement": "hepatocyte CLint", "setting": "Rat hepatocyte clearance; with ABT, read-out: Rat Hepatocyte Clearance ABT Intrinsic Clearance", "value": 3, "unit": "µL/min/1e6 cells"}, {"measurement": "pharmacokinetics in mouse (drug exposures in plasma)", "setting": "[3]", "value": "dose proportional"}, {"measurement": "PPAR binding or functional activities", "setting": "PPAR", "value": "lack of significant PPAR binding or functional activities"}, {"measurement": "selectivity in selectivity panels", "setting": "[4]", "value": "highly selective"}, {"measurement": "EC50", "setting": "GPR40 Y44F", "value": "> 30", "unit": "µM"}, {"measurement": "EC50", "setting": "GPR40 Y114F", "value": 11, "unit": "µM"}, {"measurement": "EC50", "setting": "GPR40 L112A", "value": "> 30", "unit": "µM"}, {"measurement": "EC50", "setting": "GPR40 L112F", "value": 0.06, "unit": "µM"}, {"measurement": "improvement in EC50 in L112F mutant over wild type", "setting": "GPR40 L112F; cAMP accumulation, 240 min", "value": 3, "unit": "fold"}, {"measurement": "EC50", "setting": "WT GPR40; cAMP accumulation EC50, GPR40-Gαs signaling, stably transfected cells, Fig. 1c, n = 6", "value": "~0.126", "unit": "µM"}, {"measurement": "EC50", "setting": "WT GPR40; cAMP accumulation EC50, WT, Fig. 6c-e, n = 3", "value": 0.21, "unit": "µM"}]}
